Assay results: patent US5696112A, “Fused heterocyclic azepines as vasopressin antagonists” (American Cyanamid Company, priority 1995, dated 1997)

How the values were obtained:
[1] = biological target: T1, Rat Hepatic V1 Receptors (vasopressin V1) (Rattus norvegicus, UniProt P30560); assay: Binding Assay to Rat Hepatic V1 Receptors; details: rat hepatic V1, [3H]vasopressin
T1 construct: Rat liver plasma membranes expressing the vasopressin V1 receptor subtypes are isolated by sucrose density gradient; from tissue; host or cells: rat liver plasma membranes
T1 sequence (P30560 whole entry): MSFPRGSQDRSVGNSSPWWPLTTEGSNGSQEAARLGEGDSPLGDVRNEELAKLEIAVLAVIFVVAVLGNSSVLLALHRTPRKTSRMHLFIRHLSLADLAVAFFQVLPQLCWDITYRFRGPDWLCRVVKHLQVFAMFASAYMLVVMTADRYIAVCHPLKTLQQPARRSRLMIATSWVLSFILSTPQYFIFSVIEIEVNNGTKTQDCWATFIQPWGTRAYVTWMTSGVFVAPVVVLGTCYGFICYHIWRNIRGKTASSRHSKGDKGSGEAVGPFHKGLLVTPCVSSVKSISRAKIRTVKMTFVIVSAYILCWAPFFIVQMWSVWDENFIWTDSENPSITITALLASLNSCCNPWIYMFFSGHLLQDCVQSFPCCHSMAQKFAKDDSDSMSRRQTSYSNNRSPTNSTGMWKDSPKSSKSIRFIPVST
Protocol: Binding Assay to Rat Hepatic V1 Receptors
Rat liver plasma membranes expressing the vasopressin V1 receptor subtypes are isolated by sucrose density gradient according to the method described by Lesko et al., (1973). These membranes are quickly suspended in 50.0 mMTris.HCl buffer, pH 7.4, containing 0.2% bovine serum albumin (BSA) and 0.1 mM phenylmethylsulfonylfluoride (PMSF) and kept frozen at -70° C. until used in subsequent binding experiments. For binding experiments, the following is added to the wells of a ninety-six well format microtiter plate: 100 μl of 100.0 mM Tris.HCl buffer containing 10.0 mM MgCl2, 0.2% heat inactivated BSA and a mixture of protease inhibitors: leupeptin, 1.0 mg %; aprotinin, 1.0 mg %, 1,10-phenanthroline,2.0 mg %; trypsin inhibitor, 10.0 mg % and 0.1 mM PMSF, 20.0 μl of [phenylalanyl-3,4,5-^3 H]vasopressin (S.A. 45.1 Ci/mmole) at 0.8 nM, and the reaction initiated by the addition of 80 μl of tissue membranes containing 20 μg of tissue protein. The plates are kept undisturbed on the bench top at room temperature for 120 min. to reach equilibrium. Nonspecific samples are assayed in the presence of 0.1 μM of the unlabeled antagonist phenylalanylvasopressin, added in 20.0 μl volume to a final incubation volume of 200 μl. Upon completion of binding, the content of each well is filtered off, using a Brandel® cell Harvester (Gaithersburg, Md.). The radioactivity trapped on the filter disk by the ligand-receptor complex is assessed by liquid scintillation counting in a Packard LS Counter, with an efficiency of 65% for tritium. The data are analyzed for IC50 values by the LUNDON-2 program for competition (LUNDON SOFTWARE, OH).

[2] = biological target: T2, Rat Kidney Medullary V2 Receptors (vasopressin V2) (Rattus norvegicus, UniProt Q00788); assay: Binding Assay to Rat Kidney Medullary V2 Receptors; details: rat kidney medullary V2, [3H]Arg8-vasopressin
T2 construct: Medullary tissues from rat kidneys are dissected out; from tissue; host or cells: rat kidney medulla membranes
T2 sequence (Q00788 whole entry): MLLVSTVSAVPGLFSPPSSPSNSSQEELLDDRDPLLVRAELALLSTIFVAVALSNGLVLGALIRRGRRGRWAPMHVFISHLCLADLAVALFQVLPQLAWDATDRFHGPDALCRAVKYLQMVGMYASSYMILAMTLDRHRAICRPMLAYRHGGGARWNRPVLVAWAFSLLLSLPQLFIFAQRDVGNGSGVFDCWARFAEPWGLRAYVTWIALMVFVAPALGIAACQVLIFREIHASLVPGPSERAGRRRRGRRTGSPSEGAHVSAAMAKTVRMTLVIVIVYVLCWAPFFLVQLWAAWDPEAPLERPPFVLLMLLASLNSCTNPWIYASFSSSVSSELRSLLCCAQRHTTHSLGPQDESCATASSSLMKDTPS
Protocol: Binding Assay to Rat Kidney Medullary V2 Receptors
Medullary tissues from rat kidneys are dissected out, cut into small pieces and let soak in a […] sodium chloride solution containing 1.0 mM EDTA with many changes of the liquid phase, until the solution is clear of blood. The tissue is homogenized in a 0.25M sucrose solution containing 1.0 mM EDTA and 0.1 mM PMSF using a Potter-Elvehjem homogenizer with a teflon pestle. The homogenate is filtered through several layers (4 layers) of cheese cloth. The filtrate is rehomogenized using a dounce homogenizer, with a tight fitting pestle. The final homogenate is contrifuged at 1500×g for 15 min. The nuclear pellet is discarded and the supernatant fluid recentrifuged at 40,000×g for 30 min. The resulting pellet formed contains a dark inner part with the exterior, slightly pink. The pink outer part is suspended in a small amount of 50.0 mMTris.HCl buffer, pH 7.4. The protein content is determined by the Lowry's method (Lowry et al, J. Biol. Chem., 1953). The membrane suspension is stored at -70° C., in 50.0 mMTris.HCl, containing 0.2% inactivated BSA and 0.1 mM PMSF in aliquots of 1.0 ml containing 10.0 mg protein per ml of suspension until use in subsequent binding experiments.
For binding experiments, the following is added in μl volume to wells of a 96 well format of a microtiter plate: 100.0 μl of 100.0 mM Tris.HCl buffer containing 0.2% heat inactivated BSA, 10.0 mM MgCl2 and a mixture of protease inhibitors: leupeptin, 1.0 mg %; aprotinin, 1.0 mg %; 1,10-phenanthroline, 2.0 mg %; trypsin inhibitor, 10.0 mg % and 0.1 mM PMSF, 20.0 μl of [^3 H]Arginine^8, vasopressin (S.A. 75.0 Ci/mmole) at 0.8 nM and the reaction initiated by the addition of 80.0 μl of tissue membranes (200.0 μg tissue protein). The plates are left undisturbed on the bench top for 120 min. to reach equilibrium. Non-specific binding is assessed in the presence of 1.0 μM of unlabeled ligand, added in 20 μl volume. For test compounds, these are solubilized in 50% dimethylsulfoxide (DMSO) and added in 20.0 μl volume to a final incubation volume of 200 μl. Upon completion of binding, the content of each well is filtered off, using a Brandel® cell Harvester (Gaithersburg, Md.). The radioactivity trapped on the filter disk by the ligand-receptor complex is assessed by liquid scintillation counting in a Packard LS Counter, with an efficiency of 65% for tritium. The data are analyzed for IC50 values by the LUNDON-2 program for competition (LUNDON SOFTWARE, OH).

Vasopressin V2 = Vasopressin V2 Antagonist Activity in Conscious Hydrated Rats; format: in vivo, rat; details: AVP 0.4 μg/kg i.p.
Protocol: Vasopressin V2 Antagonist Activity in conscious Hydrated Rats Conscious hydrated rats are treated with compounds under study from 0.1 to 100 mg/kg orally or vehicle. Two to four rats are used for each compound. One hour later, arginine vasopressin (AVP, antidiuretic hormone, ADH) dissolved in peanut oil is administered at 0.4 μg/kg intraperitoneally. Two rats in each test would not receive arginine vasopressin but only the vehicle (peanut oil) to serve as water-loading control. Twenty minutes later each rat is given 30 mL/kg of deionized water orally by gavage and is placed individually in a metabolic cage equipped with a funnel and a graduated glass cylinder to collect urine for four hours. Urine volume is measured and osmolality analyzed by use of a Fiske One-Ten osmometer (Fiske Assoc., Norwood, Mass. USA). Urinary sodium, potassium, and chloride are analyzed by use of ion-specific electrodes in a Beckman E3 (Electrolyte 3) Analyzer. In the following results, […] and […] osmolality relative to AVP-control indicates activity.

Vasopressin V1 = Vasopressin V1 Antagonist Activity in Conscious Rats (vasopressin vasopressor response); format: in vivo, rat
Protocol: Vasopressin V1 Antagonist Activity in Conscious Rats Conscious rats are restrained in a supine position with elastic tape. The area at the base of the tail is locally anesthetization by subcutaneous infiltration with 2% procaine (0.2 ml). Using aseptic technique the ventral caudal tail artery is isolated and a cannula made of PE 10 and 20 (heat-fused) tubing is passed into the lower abdominal aorta. The cannula is secured, heparinized (1000 i.u./cc), sealed and the would closed with one or two stitches of Dexon 4-0. The caudal vein is also cannulated in the same manner for intravenous drug administration. The duration of the surgery is approximately 5 minutes. Additional local anesthesia (2% procaine or lidocaine) is provided as needed. The animals are placed in plastic restraining cages in an upright position. The cannula is attached to a […] pressure transducer and pulsatile blood pressure is recorded. […] Percentage of antagonism by the compound is calculated using the pre-drug vasopressin vasopressor response as 100%.

oxytocin receptors = biological target: T3, oxytocin receptors (Rattus norvegicus, UniProt P70536); assay: Oxytocin Receptor Binding; design: species or system Sprague-Dawley rats; details: for IC50: 1.0 nM [3H]oxytocin
T3 construct: The uteri are dissected out, cleaned of fat and connective tissues; from tissue; host or cells: uterus membranes of DES-treated female Sprague-Dawley rats
T3 sequence (P70536 1-388): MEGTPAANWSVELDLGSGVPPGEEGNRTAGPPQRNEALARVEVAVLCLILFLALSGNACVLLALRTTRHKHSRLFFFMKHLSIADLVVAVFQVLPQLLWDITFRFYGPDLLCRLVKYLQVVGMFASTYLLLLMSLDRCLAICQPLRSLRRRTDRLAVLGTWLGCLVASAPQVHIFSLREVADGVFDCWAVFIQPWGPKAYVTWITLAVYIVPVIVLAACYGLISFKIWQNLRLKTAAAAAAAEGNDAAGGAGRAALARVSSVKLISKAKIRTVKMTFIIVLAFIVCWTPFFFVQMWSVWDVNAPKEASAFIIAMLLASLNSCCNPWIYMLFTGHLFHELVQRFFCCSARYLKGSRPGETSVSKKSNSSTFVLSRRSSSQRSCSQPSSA
Protocol: Oxytocin Receptor Binding
Female Sprague-Dawley rats weighing approximately 200-250 g are injected intramuscularly (i.m.) with 0.3 mg/kg of body weight of diethylstilbestrol (DES). The rats are sacrificed 18 hours later under pentobarbital anesthesia. The uteri are dissected out, cleaned of fat and connective tissues and rinsed in 50 ml of normal saline. The tissue pooled from six rats is homogenized in 50 ml of 0.01 mMTris.HCl, containing 0.5 mM dithiothreitol and 1.0 mM EDTA, adjusted to pH 7.4, using a polytron at setting 6 with three passes of 10 sec each. The homogenate is passed through two (2) layers of cheesecloth and the filtrate centrifuged at 1000×g for 10 min. The clear supernatant is removed and recentrifuged at 165,000×g for 30 min. The resulting pellet containing the oxytocin receptors is resuspended in 50.0 mM Tris.HCl containing 5.0 mM MgCl2 at pH 7.4, to give a protein concentration of 2.5 mg/ml of tissue suspension. This preparation is used in subsequent binding assays with [^3 H]Oxytocin.
Binding of 3,5-[^3 H]Oxytocin ([^3 H]OT) to its receptors is done in microtiter plates using [^3 H]OT, at various concentrations, in an assay buffer of 50.0 mM Tris.HCl, pH 7.4 and containing 5.0 mM MgCl2, and a mixture of protease inhibitors: BSA, 0.1 mg; aprotinin, 1.0 mg; 1,10-phenanthroline, 2.0 mg; […], 10.0 mg; and PMSF, 0.3 mg per 100 ml of buffer solution. Nonspecific binding is determined in the presence of 1.0 uM unlabeled OT. The binding reaction is terminated after 60 min., at 22° C., by rapid filtration through glass fiber filters using a Brandel® cell harvester (Biomedical Research and Development Laboratories, Inc., Gaithersburg, Md.). Competition experiments are conducted at equilibrium using 1.0 nM [^3 H]OT and varying the concentration of the displacing agents. The concentrations of agent displacing 50% of [^3 H]OT at its sites (IC50) are calculated by a computer assisted LUNDON-2 program (LUNDON SOFTWARE INC., Ohio, USA).

[3] = Rattus norvegicus, 10 mg/kg iv, read-out: Vasopressin vasopressor response, Max. % Inhibition

| Compound | IC50 [1] | IC50 [2] | IC50 (oxytocin receptors) | inhibition at 10 µM (oxytocin receptors; 10 μM) | inhibition at 2.5 µM (oxytocin receptors; 2.5 μM) | Osmolality (Vasopressin V2; 30 mg/kg P.O.) | Urine Volume (Vasopressin V2; 30 mg/kg P.O.) | Time (Min) of Max. % Inhibition (Vasopressin V1; 10 mg/kg iv) | inhibition in vivo at 10 mg/kg (Vasopressin V1; [3]) | Urine Volume (Vasopressin V2; 10 mg/kg P.O.) | Time (Min) of Max. % Inhibition (Vasopressin V1; 20 mg/kg iv) | inhibition in vivo at 20 mg/kg (Vasopressin V1; Rattus norvegicus, 20 mg/kg iv, read-out: Vasopressin vasopressor response, Max. % Inhibition) |
| --- | --- | --- | --- | --- | --- | --- | --- | --- | --- | --- | --- | --- |
| O=C(Nc1ccc(C(=O)N2CCCCc3sccc32)cc1)C1CC=CCC1 (stereo not shown) [Example 15, N-[4-[(5,6,7,8-Tetrahydro-4H-thieno[3,2-b]azepin-4-yl)carbonyl]phenyl]3-cyclohexenecarboxamide] | 0.065 µM | 0.055 µM |  |  |  | 1397 mOsm/kg | 4.6 ml/4 hours | 30 min | 69% |  |  |  |
| O=C(Cc1ccccc1Cl)Nc1ccc(C(=O)N2CCCCc3sc(Cl)cc32)cc1 [Example 99, N-[4-[(2-Chloro-5,6,7,8-tetrahydro-4H-thieno[3,2-b]azepin-4-yl)carbonyl]phenyl]-2-chlorobenzeneacetamide] | 0.02 µM | 0.0033 µM |  |  |  | 1135 mOsm/kg | 10 ml/4 hours | 90 min | 58% |  |  |  |
| O=C(Cc1ccccc1Cl)Nc1ccc(C(=O)N2CCCCc3sccc32)cc1 [Example 2, N-[4-[(5,6,7,8-Tetrahydro-4H-thieno[3,2-b]azepin-4-yl)carbonyl]phenyl]-2-chlorobenzeneacetamide] | 0.0037 µM | 0.0026 µM |  |  |  |  |  | 60 min | 7.6% | 2.8 ml/4 hours |  |  |
| O=C(Nc1ccc(C(=O)N2CCCCc3sccc32)cc1)c1ccc(Cl)cc1Cl [Example 14, N-[4-[(5,6,7,8-Tetrahydro-4H-thieno[3,2-b]azepin-4-yl)carbonyl]phenyl]2,4-dichlorobenzamide] | 0.12 µM | 0.03 µM |  |  |  | 1432 mOsm/kg | 3.5 ml/4 hours |  |  |  | 120 min | 61% |

Continued, in another order:

| IC50 [1] | IC50 [2] | IC50 (oxytocin receptors) | inhibition at 10 µM (oxytocin receptors; 10 μM) | inhibition at 2.5 µM (oxytocin receptors; 2.5 μM) | Compound | Osmolality (Vasopressin V2; 30 mg/kg P.O.) | Urine Volume (Vasopressin V2; 30 mg/kg P.O.) | Time (Min) of Max. % Inhibition (Vasopressin V1; 10 mg/kg iv) | inhibition in vivo at 10 mg/kg (Vasopressin V1; [3]) | Urine Volume (Vasopressin V2; 10 mg/kg P.O.) | Time (Min) of Max. % Inhibition (Vasopressin V1; 20 mg/kg iv) | inhibition in vivo at 20 mg/kg (Vasopressin V1; Rattus norvegicus, 20 mg/kg iv, read-out: Vasopressin vasopressor response, Max. % Inhibition) |
| --- | --- | --- | --- | --- | --- | --- | --- | --- | --- | --- | --- | --- |
| 0.068 µM | 0.0061 µM | 0.34 µM | 96% |  | Cc1ccc(F)cc1C(=O)Nc1ccc(C(=O)N2CCCCc3sccc32)cn1 [Example 243, N-[5-[(5,6,7,8-tetrahydro-4H-thieno[3,2-b]azepin-4-yl)carbonyl]-2-pyridinyl]-5-fluoro-2-methylbenzamide] |  |  |  |  |  |  |  |
| 0.068 µM | 0.0061 µM | 0.17 µM |  | 93% | O=C(Nc1ccc(C(=O)N2CCCCc3sccc32)cn1)c1ccccc1-c1ccccc1 [Example 252] |  |  |  |  |  |  |  |
